test system: Anti-β-1,6-Glucan IgG antibodies (affinity purified from IVIG, Baxter); experiment: ELISA: binding of oligosaccharides to anti-β-1,6-glucan antibodies; conditions: plate coated with oligosaccharide in PBS; 40 ug/mL anti-Beta 1,6 Glucan IgG; anti-human IgG-HRP, TMB, absorbance at 620 nm; further: key: a plus (+) sign indicates that the glucan was active in the assay; a minus (−) sign indicates that the glucan was not active; the '+/−' symbol indicates inconclusive results
Method in brief: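 Oligosaccharides coated overnight at 4° C in PBS, casein-blocked 1 h at room temperature, then incubated 45 min with 40 ug/mL anti-β-1,6-glucan IgG. Bound IgG detected with anti-human IgG-HRP (1:5000, 45 min, dark) and TMB; absorbance at 620 nm read every 1 min for 60 min.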

| Substance | ELISA assay data: glucan active in detection of anti-beta glucan IgG |
| --- | --- |
| [(2R,3R,4R,5RS)-2,3,4,5-tetrahydroxy-6-[(N-methyl-N-(5-aminopentyl))amino]hexyl [O-β-D-glucopyranosyl-1,6]6-β-D-glucopyranoside [N(Me),N(CH2)5NH2, n=7] | + |
| [O-β-D-glucopyranosyl-1,6-]5-D-glucose [OH, n=6] | + |
| [O-β-D-glucopyranosyl-1,6]6-D-glucopyranoside [OH, n=7] | + |
